A short description of data set [1]: Cytotoxicity against human SH-SY5Y cells assessed as cell viability at 10 uM incubated for 24 hrs by MTT assay relative to control. Conditions: read-out: Activity. It is filed as cell-based. A general note: Formazan colour is commonly taken as a measure of viable cells.
Data set [2] has as its system SH-SY5Y. In words: Neuroprotective activity against MPP+-induced neurotoxicity in human SH-SY5Y cells assessed as cell viability at 10 uM pretreated for 2 hrs followed by MPP+ challenge and measured after 24 hrs by MTT assay relative to control. It is filed as functional. Conditions: time 26 hrs, read-out: Activity.
Data set [3] has as its system SH-SY5Y. Briefly: Cytotoxicity against human SH-SY5Y cells assessed as reduction in cell viability at 10 to 100 uM incubated for 24 hrs by MTT assay. It is filed as cell-based. The following applies: dose 10-100 µM.
For data set [4], the system named is SH-SY5Y. In words: Antagonist activity at NMDA receptor in human SH-SY5Y cells assessed as inhibition of calcium influx at 10 uM by Fura-2AM dye based fluorescence analysis relative to control. It is filed as cell-based.
In data set [5] the test system is SH-SY5Y. In words: Blockade of VGCC in human SH-SY5Y cells assessed as inhibition of membrane depolarisation-induced calcium influx at 10 uM by Fura-2AM dye based fluorescence analysis relative to control. In kind it is cell-based.
Data set [6] in a line: Displacement of [3H]MK801 from NMDA receptor in Sprague-Dawley rat cerebral cortical membrane incubated for 60 mins by liquid scintillation counting analysis. In kind it is cell membranes, Cerebral cortex. (In a radioligand displacement assay an active substance lowers the binding of a labelled ligand.)
A short description of data set [7]: Cytotoxicity against human SH-SY5Y cells assessed as cell viability at 100 uM incubated for 24 hrs by MTT assay relative to control. Conditions: read-out: Activity. In kind it is cell-based.
The nature of data set [8]: Displacement of [3H]MK801 from NMDA receptor (unknown origin) by radioligand binding assay. Also on record: species or system Homo sapiens.
A short description of data set [9]: Displacement of [3H]MK801 from NMDA receptor in human brain by radioligand binding assay. In kind it is tissue-based.
A short description of data set [10]: Antagonist activity at NMDA receptor (unknown origin). The arrangement: species or system Homo sapiens.

As a reminder, the inhibition is the change of the read-out against control, counted positive when it falls. In general, Ki refers to the dissociation constant of the complex between target and ligand, obtained from inhibition or displacement. Low values mean higher affinity, high ones lower affinity.

Activity calls are given as the source filed them. The calls are words filed in the database; no cut-off is given here.

Regarding `O=C1C=C[C@H](NCc2ccccc2)[C@@H]2[C@H]1[C@H]1C=C[C@@H]2C1`, the viability at 24 h, 10 µM in data set [1] is 108%. Also, in the data set with SH-SY5Y [2], the viability at 10 µM amounted to 33.7%. Besides, the Activity entry in the data set with SH-SY5Y [3] is “Toxic”. Also, the results for the inhibition in the data set on SH-SY5Y [4] and in the data set with SH-SY5Y [5] were 26.5% and 21.3%, respectively.

`C[C@@]12N[C@@H](Cc3ccccc31)c1ccccc12`: the inhibition in the data set with SH-SY5Y [4] (filed as antagonist) was 47.5%. Also, the inhibition entry in the data set with SH-SY5Y [5] was “inactive”. In [6], affinity was put at a Ki of 37.2 nM.

With `O=C1CC[C@H]2C[C@@H]1CCC2=O`, the viability at 24 h, 10 µM in data set [1] amounted to 125%. Also, the viability at 10 µM with SH-SY5Y [2] is 26.1%. In the data set with SH-SY5Y [3], the Activity result is given as “Non-Toxic”. Besides, the inhibition in the data set with SH-SY5Y [4] (filed as antagonist) was 73%. The inhibition entry in the data set on SH-SY5Y [5] is “inactive”.

In the case of `COCCOC(=O)C1=C(C)NC(C)=C(C(=O)OC(C)C)C1c1cccc([N+](=O)[O-])c1` (stereo not given), the inhibition entry in the data set with SH-SY5Y [4] is “inactive”. Also, in the data set with SH-SY5Y [5], the inhibition was 34.1%.

On to `O=C1C=C[C@H](NN2CCCCC2)[C@@H]2[C@H]1[C@H]1C=C[C@@H]2C1`, for which, in [1], the viability at 24 h, 10 µM is 93.7%. Moreover, in the data set on SH-SY5Y [2], the viability at 10 µM came to 33.9%. Moreover, the Activity result in the data set with SH-SY5Y [3] is “Non-Toxic”. The inhibition is 65.3% in the data set with SH-SY5Y [4] (filed as antagonist) and 8.4% in the data set with SH-SY5Y [5].

With `O=C1CC[C@H](O)C2C3C=C[C@@H](C3)C12` (single isomer, unassigned), the viability at 24 h, 10 µM in [1] worked out at 96.3%. For the same molecule, the viability at 10 µM in the data set on SH-SY5Y [2] came out at 35%. Further, the Activity entry in the data set with SH-SY5Y [3] is listed as “Non-Toxic”. The inhibition stood at 69.7% in the data set with SH-SY5Y [4] (filed as antagonist) and 32.8% in the data set on SH-SY5Y [5].

`O[C@@H]1C[C@H]2CC[C@@H]1NC2`: the viability at 24 h, 10 µM in data set [1] turned out to be 96.3%. In addition, in the data set with SH-SY5Y [2], the viability at 10 µM is 28.3%. Further, the viability at 24 h, 100 µM in [7] was 59%. In the data set with SH-SY5Y [3], the Activity result is “Toxic”. Further, the inhibition with SH-SY5Y [4] (filed as antagonist) was 43.5%. Besides, the inhibition entry with SH-SY5Y [5] is “inactive”.

For the molecule `O=C1C2C3C=CC(C3)C2C(=O)C2C3C=CC(C3)C12` (stereo not given), the viability at 24 h, 10 µM in [1] is 95.9%. Further, the viability at 10 µM with SH-SY5Y [2] was 41.4%. In addition, the Activity result with SH-SY5Y [3] is recorded as “Non-Toxic”. Further, the inhibition was found to be 62.3% with SH-SY5Y [4] (filed as antagonist) and 50.3% in the data set with SH-SY5Y [5].

With `C1=C[C@H]2CC[C@@H]1[C@H]1CNC[C@H]12`, the viability at 24 h, 10 µM in [1] amounted to 108%. The viability at 10 µM in the data set on SH-SY5Y [2] was found to be 27.5%. The Activity result in the data set with SH-SY5Y [3] is recorded as “Non-Toxic”. Further, the inhibition with SH-SY5Y [4] (filed as antagonist) was 55.5%; in the data set with SH-SY5Y [5] it was 5.79%.

For `CN[C@@]1(c2ccccc2Cl)CCCCC1=O`, the Ki in [8] was 659 nM.

In data set [8], `c1ccc(C2(N3CCCCC3)CCCCC2)cc1` [PHENCYCLIDINE] displayed a Ki of 59 nM.

Consider `O=C1C=CC(=O)[C@H]2[C@@H]1[C@H]1C=C[C@H]2C1`, for which the viability at 24 h, 10 µM in [1] is 97.7%. In the data set with SH-SY5Y [2], the viability at 10 µM stood at 32.8%. In the data set on SH-SY5Y [3], the Activity entry is “Toxic”. Also, the inhibition was 43.8% in the data set on SH-SY5Y [4] (filed as antagonist) and 15% in the data set with SH-SY5Y [5].

`CC12CC3CC(C)(C1)CC(N)(C3)C2` [MEMANTINE] registered a Ki in data set [9] of 540 nM.

In data set [10], `NC12CC3CC(CC(C3)C1)C2` [AMANTADINE] registered a Ki of 10000 nM.

On to `C1C2OC2[C@H]2[C@@H]1[C@H]1C[C@@H]2C2OC21` (stereo not given in full), for which, in data set [1], the viability at 24 h, 10 µM was 94.4%. In addition, the viability at 10 µM in the data set on SH-SY5Y [2] turned out to be 27.9%. The Activity entry in the data set on SH-SY5Y [3] is given as “Toxic”. For the same molecule, the inhibition was found to be 53.3% in the data set on SH-SY5Y [4] (filed as antagonist) and 8.49% with SH-SY5Y [5].

In the case of `O=C1CCC(=O)[C@H]2[C@@H]1[C@H]1C=C[C@H]2C1`, in data set [1], the viability at 24 h, 10 µM came to 96.6%. Besides, in the data set with SH-SY5Y [2], the viability at 10 µM came out at 40.6%. Moreover, in the data set with SH-SY5Y [3], the Activity entry is “Toxic”. Moreover, the inhibition in the data set with SH-SY5Y [4] (filed as antagonist) was 51%; in the data set with SH-SY5Y [5], 25.4%.

These data come from ChEMBL document CHEMBL4765400, “Open and rearranged norbornane derived polycyclic cage molecules as potential neuroprotective agents through attenuation of MPP- and calcium overload-induced excitotoxicity in neuroblastoma SH-SY5Y cells” (Eur J Med Chem, 2020).
